The results in this text go back to patent US5405861A, “Triazole compounds and antifungal compositions thereof” (Takeda Chemical Industries, Co., Ltd., priority 1989, dated 1995).

A word on the ED50: it is the midpoint of the dose-response relation.

Where a name gives a salt, the structure may show the parent alone. Bounds are passed on as bounds.

The first assay concerns Candida albicans (IFO 0538). As to the kind of experiment: Antifungal activity against Candida albicans, paper disc growth inhibition zone (Tables 5 and 6). It counts as cell-based. Conditions: 48 h, pH 7, B medium (yeast nitrogen base agar, pH 7.0), 28° C., 2 days incubation; read-out: Inhibition zone diameter. How it is done: The antifungal activities of the compounds (I) were evaluated by the following method: a sheet of filter paper disc (manufactured by Toyo Seisakusho, 8 mm in diameter) soaked in a 1000 μg/ml solution of a compound (I) in methanol was placed on an agar plate, which was incubated at 28° C. for 2 days, and the diameter of the growth inhibition zone around the filter paper disc was measured. The following culture media were used:
A: yeast nitrogen base agar medium
B: yeast nitrogen base agar medium (pH 7.0)
`C[C@@H](SCc1nccn1CC(F)F)[C@](O)(Cn1cncn1)c1ccc(F)cc1F` [Compound 109]: the zone of inhibition at 1000 µg/mL was found to be 28 mm.
Consider `Cc1nc(CS[C@H](C)[C@](O)(Cn2cncn2)c2ccc(F)cc2F)cs1` [Compound 107], for which the zone of inhibition at 1000 µg/mL was 33 mm.
On the same count and under the same terms, next, `CC(C)(S)C(O)(Cn1cncn1)c1ccc(F)cc1F` (stereo not drawn) [Compound 119]: 30 mm; `C[C@@H](SCc1ncc2cnccn12)[C@](O)(Cn1cncn1)c1ccc(F)cc1F` [Compound 112]: 30 mm.
On to `C[C@@H](SCc1ccncn1)[C@](O)(Cn1cncn1)c1ccc(F)cc1F` [Compound 126], for which the zone of inhibition at 1000 µg/mL is 38 mm.
On the same count and under the same terms, next, `C[C@@H](SCc1cn2cccnc2n1)[C@](O)(Cn1cncn1)c1ccc(F)cc1F` [Compound 125]: 33 mm; `Cc1csc(CS[C@H](C)[C@](O)(Cn2cncn2)c2ccc(F)cc2F)n1` [Compound 99]: 35 mm; `C[C@@H](SCc1cncn1C)[C@](O)(Cn1cncn1)c1ccc(F)cc1F` [Compound 91]: 30 mm.
The same measure, in the same setting: then `C[C@@H](SCc1csc(N)n1)[C@](O)(Cn1cncn1)c1ccc(F)cc1F` [Compound 121], with 35 mm.
`C[C@@H](SCc1nncn1C1CC1)[C@](O)(Cn1cncn1)c1ccc(F)cc1F` [Compound 114]: the zone of inhibition at 1000 µg/mL was determined as 15 mm.
On the same count and under the same terms, then `C[C@@H](S)[C@@](O)(Cn1cncn1)c1ccc(F)cc1F` [Compound 117, (2S,3R)-2-(2,4-difluorophenyl)-3-mercapto-1-(1 H-1,2,4-triazol-1-yl)-2-butanol], with 25 mm.
`C[C@@H](SCc1csc(C2CC2)n1)[C@](O)(Cn1cncn1)c1ccc(F)cc1F` [Compound 123]: the zone of inhibition at 1000 µg/mL was 35 mm.
On the same count and under the same terms, then `C[C@@H](SCc1cnc2cccnn12)[C@](O)(Cn1cncn1)c1ccc(F)cc1F` [Compound 129], with 35 mm.
In the case of `C[C@@H](SCc1nccn1C)[C@](O)(Cn1cncn1)c1ccc(F)cc1F` [Compound 78], the zone of inhibition at 1000 µg/mL was determined as 30 mm.
Same read-out and setting: next, `Cc1ncc(CS[C@H](C)[C@](O)(Cn2cncn2)c2ccc(F)cc2F)s1` [Compound 108]: 40 mm; `CC(C)n1ccnc1CS[C@H](C)[C@](O)(Cn1cncn1)c1ccc(F)cc1F` (relative stereo) [Compound 47]: 25 mm; `CC(n1cncn1)C(O)(CS)c1ccc(F)cc1F` (single isomer, unassigned) [Compound 115, 2-(2,4-difluorophenyl)-1-mercapto-3-[(1H)-1,2,4-triazol-1-yl]-2-butanol]: 33 mm.
Still for that read-out and setting: then `C[C@@H](SCc1ncc2ncccn12)[C@](O)(Cn1cncn1)c1ccc(F)cc1F` [Compound 130], with 35 mm; and `C[C@@H](SCc1nsc(N)n1)[C@](O)(Cn1cncn1)c1ccc(F)cc1F` [Compound 128], with 30 mm; and `C[C@@H](SCc1nccn1CC(F)(F)F)[C@](O)(Cn1cncn1)c1ccc(F)cc1F` (relative stereo) [Compound 49], with 25 mm.
Same read-out and setting: then `C[C@@H](SCc1ncc2n1CCC2)[C@](O)(Cn1cncn1)c1ccc(F)cc1F` [Compound 97], with 27 mm.
Take `C[C@@H](SCc1ncc2cccnn12)[C@](O)(Cn1cncn1)c1ccc(F)cc1F` [Compound 131]: the zone of inhibition at 1000 µg/mL was determined as 40 mm.
Still for that read-out and setting: next, `OC(Cn1cncn1)(c1ccc(F)cc1F)C1(S)CC1` (stereo not drawn) [Compound 120]: 30 mm.
The same measure, in the same setting: next, `Cc1nc(CS[C@H](C)[C@](O)(Cn2cncn2)c2ccc(F)cc2F)sc1C` (relative stereo) [Compound 36]: 45 mm; `C[C@@H](SCc1nccn1CC1CC1)[C@](O)(Cn1cncn1)c1ccc(F)cc1F` (relative stereo) [Compound 51]: 28 mm; `CCn1ccnc1CS[C@H](C)[C@](O)(Cn1cncn1)c1ccc(F)cc1F` (relative stereo) [Compound 46]: 27 mm.
The same measure, in the same setting: then `C[C@H](S)[C@@](O)(Cn1cncn1)c1ccc(F)cc1F` [Compound 42, (2S,3S)-2-(2,4-difluorophenyl)-3-mercapto-1-(1H-1,2,4-triazol-1-yl)-2-butanol], with 34 mm; and `C[C@H](S)[C@](O)(Cn1cncn1)c1ccc(F)cc1F` [Compound 118, (2R,3S)-2-(2,4-difluorophenyl)-3-mercapto-1-(1H-1,2,4-triazol-1-yl)-2-butanol], with 33 mm.
Turning to `C[C@@H](SCc1csc(C(F)(F)F)n1)[C@](O)(Cn1cncn1)c1ccc(F)cc1F` [Compound 122], the zone of inhibition at 1000 µg/mL was determined as 35 mm.
Still for that read-out and setting: then `CC(=O)S[C@H](C)[C@](O)(Cn1cncn1)c1ccc(F)cc1F` (relative stereo) [Compound 40], with 50 mm; and `Cc1csc(CS[C@H](C)[C@](O)(Cn2cncn2)c2ccc(F)cc2F)n1` (relative stereo) [Compound 37], with 45 mm; and `C[C@@H](SCc1cn2ccncc2n1)[C@](O)(Cn1cncn1)c1ccc(F)cc1F` [Compound 124], with 30 mm.
For the compound `C[C@@H](SCCn1cncn1)[C@](O)(Cn1cncn1)c1ccc(F)cc1F` (relative stereo) [13(hydrochloride)], the zone of inhibition at 1000 µg/mL came out at 25 mm.
Still for that read-out and setting: next, `C[C@@H](SCc1ncn(C)n1)[C@](O)(Cn1cncn1)c1ccc(F)cc1F` (relative stereo) [Compound 32]: 40 mm; `Cc1nccc(CS[C@H](C)[C@](O)(Cn2cncn2)c2ccc(F)cc2F)n1` [Compound 127]: 33 mm.

The test system of a further assay is Candida albicans. Put plainly: Infection-preventing effect in experimental infection in mice, Method 1 (Table 7-1). Conditions: Candida albicans, po, 168 h, p.o., given 0 and 2 hours after infection; survival 7 days after infection; total dose; read-out: ED50. The format is in vivo, Crj:CDF1 mice. How it is done: Method 1 (Table 7-1): To 5-week-old Crj:CDF1 mice the minimum lethal dose of Candida albicans was inoculated intravenously. The test drug was given twice 0 and 2 hours after infection. The effectiveness of the drug was expressed in ED50 values calculated by the Reed and Muench method from the survival rate 7 days after infection. The ED50 values were calculated based on the total dose given on the two occasions.
`Cc1nc(CS[C@H](C)[C@](O)(Cn2cncn2)c2ccc(F)cc2F)cs1` [Compound 107]: the ED50 was under 0.5 mg/kg.

The same assay, now with this note: Candida albicans, sc, 168 h, s.c., given 0 and 2 hours after infection; survival 7 days after infection; total dose; read-out: ED50.
Take `Cc1nc(CS[C@H](C)[C@](O)(Cn2cncn2)c2ccc(F)cc2F)cs1` [Compound 107]: the ED50 came to 0.71 mg/kg.
Take `CC(C)n1ccnc1CS[C@H](C)[C@](O)(Cn1cncn1)c1ccc(F)cc1F` (relative stereo) [Compound 47]: the median effective dose (ED50) came to 0.7 mg/kg.
Same read-out and setting: next, `CC(n1cncn1)C(O)(CS)c1ccc(F)cc1F` (single isomer, unassigned) [Compound 115, 2-(2,4-difluorophenyl)-1-mercapto-3-[(1H)-1,2,4-triazol-1-yl]-2-butanol]: over 4 mg/kg; `C[C@@H](SCc1nccn1CC(F)(F)F)[C@](O)(Cn1cncn1)c1ccc(F)cc1F` (relative stereo) [Compound 49]: 1 mg/kg; `Cc1nc(CS[C@H](C)[C@](O)(Cn2cncn2)c2ccc(F)cc2F)sc1C` (relative stereo) [Compound 36]: 3.2 mg/kg.
As for `C[C@@H](SCc1nccn1CC1CC1)[C@](O)(Cn1cncn1)c1ccc(F)cc1F` (relative stereo) [Compound 51], the median effective dose (ED50) stood at 2 mg/kg.
On the same count and under the same terms, next, `CCn1ccnc1CS[C@H](C)[C@](O)(Cn1cncn1)c1ccc(F)cc1F` (relative stereo) [Compound 46]: 0.7 mg/kg; `CC(=O)S[C@H](C)[C@](O)(Cn1cncn1)c1ccc(F)cc1F` (relative stereo) [Compound 40]: 0.35 mg/kg; `Cc1csc(CS[C@H](C)[C@](O)(Cn2cncn2)c2ccc(F)cc2F)n1` (relative stereo) [Compound 37]: 1.4 mg/kg.
On the same count and under the same terms, then `C[C@@H](SCCn1cncn1)[C@](O)(Cn1cncn1)c1ccc(F)cc1F` (relative stereo) [13(hydrochloride)], with 10 mg/kg; and `C[C@@H](SCc1ncn(C)n1)[C@](O)(Cn1cncn1)c1ccc(F)cc1F` (relative stereo) [Compound 32], with 3.2 mg/kg.

The next assay relates to Candida albicans. Put plainly: Infection-preventing effect in experimental infection in mice, Method 2 (Table 7-2). Conditions: po, 168 h, p.o., given just after infection, survival 7 days after infection. It counts as in vivo, Crj:CDF1 mice. The protocol: Method 2 (Table 7-2): To 5-week-old Crj:CDF1 mice the minimum lethal dose of Candida albicans was inoculated intravenously. The test drug was given just after infection. The effectiveness of the drug was expressed in ED50 values calculated by the Reed and Muench method from the survival rate 7 days after infection. The ED50 values were calculated based on the […].
As for `C[C@@H](SCc1nccn1CC(F)F)[C@](O)(Cn1cncn1)c1ccc(F)cc1F` [Compound 109], the median effective dose (ED50) was 0.5 mg/kg.
With `Cc1nc(CS[C@H](C)[C@](O)(Cn2cncn2)c2ccc(F)cc2F)cs1` [Compound 107], the ED50 was 0.39 mg/kg.
Same read-out and setting: next, `CC(C)(S)C(O)(Cn1cncn1)c1ccc(F)cc1F` (stereo not drawn) [Compound 119]: 0.18 mg/kg.
In the case of `C[C@@H](SCc1ncc2cnccn12)[C@](O)(Cn1cncn1)c1ccc(F)cc1F` [Compound 112], the ED50 worked out at 0.5 mg/kg.
Same read-out and setting: then `C[C@@H](SCc1ccncn1)[C@](O)(Cn1cncn1)c1ccc(F)cc1F` [Compound 126], with 2 mg/kg; and `C[C@@H](SCc1cn2cccnc2n1)[C@](O)(Cn1cncn1)c1ccc(F)cc1F` [Compound 125], with 0.5 mg/kg; and `Cc1csc(CS[C@H](C)[C@](O)(Cn2cncn2)c2ccc(F)cc2F)n1` [Compound 99], with 1.4 mg/kg.
The same measure, in the same setting: then `C[C@@H](SCc1cncn1C)[C@](O)(Cn1cncn1)c1ccc(F)cc1F` [Compound 91], with under 0.25 mg/kg; and `C[C@@H](SCc1csc(N)n1)[C@](O)(Cn1cncn1)c1ccc(F)cc1F` [Compound 121], with 0.5 mg/kg; and `C[C@@H](SCc1nncn1C1CC1)[C@](O)(Cn1cncn1)c1ccc(F)cc1F` [Compound 114], with 0.4 mg/kg.
Same read-out and setting: next, `C[C@@H](S)[C@@](O)(Cn1cncn1)c1ccc(F)cc1F` [Compound 117, (2S,3R)-2-(2,4-difluorophenyl)-3-mercapto-1-(1 H-1,2,4-triazol-1-yl)-2-butanol]: over 4 mg/kg; `C[C@@H](SCc1csc(C2CC2)n1)[C@](O)(Cn1cncn1)c1ccc(F)cc1F` [Compound 123]: 0.5 mg/kg.
`C[C@@H](SCc1cnc2cccnn12)[C@](O)(Cn1cncn1)c1ccc(F)cc1F` [Compound 129]: the ED50 turned out to be 0.5 mg/kg.
In the case of `C[C@@H](SCc1nccn1C)[C@](O)(Cn1cncn1)c1ccc(F)cc1F` [Compound 78], the ED50 came to 0.5 mg/kg.
Same read-out and setting: next, `Cc1ncc(CS[C@H](C)[C@](O)(Cn2cncn2)c2ccc(F)cc2F)s1` [Compound 108]: 1.4 mg/kg; `C[C@@H](SCc1ncc2ncccn12)[C@](O)(Cn1cncn1)c1ccc(F)cc1F` [Compound 130]: 0.7 mg/kg; `C[C@@H](SCc1nsc(N)n1)[C@](O)(Cn1cncn1)c1ccc(F)cc1F` [Compound 128]: 2 mg/kg.
The same measure, in the same setting: next, `C[C@@H](SCc1ncc2n1CCC2)[C@](O)(Cn1cncn1)c1ccc(F)cc1F` [Compound 97]: 0.5 mg/kg; `C[C@@H](SCc1ncc2cccnn12)[C@](O)(Cn1cncn1)c1ccc(F)cc1F` [Compound 131]: 0.7 mg/kg.
Same read-out and setting: next, `OC(Cn1cncn1)(c1ccc(F)cc1F)C1(S)CC1` (stereo not drawn) [Compound 120]: 0.35 mg/kg; `C[C@H](S)[C@@](O)(Cn1cncn1)c1ccc(F)cc1F` [Compound 42, (2S,3S)-2-(2,4-difluorophenyl)-3-mercapto-1-(1H-1,2,4-triazol-1-yl)-2-butanol]: over 4 mg/kg; `C[C@H](S)[C@](O)(Cn1cncn1)c1ccc(F)cc1F` [Compound 118, (2R,3S)-2-(2,4-difluorophenyl)-3-mercapto-1-(1H-1,2,4-triazol-1-yl)-2-butanol]: 2.8 mg/kg.
Compound `C[C@@H](SCc1csc(C(F)(F)F)n1)[C@](O)(Cn1cncn1)c1ccc(F)cc1F` [Compound 122] showed a 50% effective dose (ED50) of 0.5 mg/kg.
In turn, `C[C@@H](SCc1cn2ccncc2n1)[C@](O)(Cn1cncn1)c1ccc(F)cc1F` [Compound 124] had an ED50 of 0.7 mg/kg.
On the same count and under the same terms, next, `Cc1nccc(CS[C@H](C)[C@](O)(Cn2cncn2)c2ccc(F)cc2F)n1` [Compound 127]: 2 mg/kg.
